Target: T1, GDP-loaded kRas (1-169) G12C, C51S, C80L, C118S (Homo sapiens, UniProt P01116, C118S/C51S/C80L/G12C)
T1 construct: GDP-loaded kRas (1-169) G12C, C51S, C80L, C118S
Assay: Mass Spectrometry Reactivity Assay (MSRA), covalent adduct with kRas G12C
Type: binding
Conditions: 0.5 h at room temperature; 5 μM KRas protein; typical final concentration of the compounds 10 μM
Protocol: Mass Spectrometry Reactivity Assay (MSRA)
Compounds presented in the present invention covalently bind to kRas G12C using MSRA to detect a covalent adduct of the exemplary compound and kRas G12C. GDP-loaded kRas (1-169) G12C, C51S, C80L, C118S were diluted in the protein assay buffer 25 mM Hepes pH7.5, 200 mM NaCl, 5% glycerol to concentration of 5 μM and 20 μl of protein was transferred into 96-well plate. […] See K-Ras(G12C) inhibitors allosterically control GTP affinity and effector interactions; Ostrem J M, Peters U, Sos M L, Wells J A, Shokat K M; Nature. 2013, Nov. 28; 503(7477):548-51.
Exemplary compounds dissolved in DMSO were diluted 100-fold into solution containing 20 μl of 5 μM KRas protein in the 96-well plate to initiate the reaction. Mosquito (TPP Lab tech) liquid handling robot was used to add compounds to protein solution. Typical final concentration of the compounds was 10 μM. The plates were placed on a shaker for 1 min at RT, sealed and incubated at room temperature for specified time period. 5 μl of reaction mix was added to 10 μl of 0.2% formic acid stop solution and mixed well. Typical end points were 30, 120, 600 and 1440 min.
Data were collected using Waters Acquity H-class UPLC system/Xevo G2-XS TOF mass spectrometer. The protein was injected in their liquid phase onto a Bruker Microtrap protein column TR1/15109/03. The following buffers were used to set LC gradient: Buffer A: 0.2% formic acid H20; B: 0.2% formic acid CAN. The protein was eluted from the column using the following LC Gradient: 0-0.4 min, 10% B to 30% B; 0.4 min-2.4 min, to 90% B, 2.5 min, 10% B, 3 min, 10% B. Initial data analysis was performed using MaxEnt software right after data acquisition.
The standard auto processing function was used to define percentage of unmodified and modified kRas protein using MexEnt software right after data acquisition. The highest peak was defined as 100% while smaller peak as assigned the number defined by autoprocessing function. The percent of modification corresponding to modified with exemplary compound and unmodified KRas GDP-loaded kRas (1-169) G12C, C51S, C80L, C118S were exported to Xcel data analysis software.
The percent of modified protein at the defined concentration of exemplary compound was calculated using the following formula: % mod=Num of modified peak/Sum of modified+unmodified.

Q: How did the “% Modification (0.5 h)” value turn out when C=CC(=O)N1CCN(c2ncnc3c2CC[C@@H](c2c(C)ccc4[nH]ncc24)C3)CC1 (single isomer, unassigned) [Example A2] was run?
A: 0%

Q: For C=CC(=O)N1CCN(c2nc(N3CC(N(C)C)C3)nc3c2C[C@H](C)[C@@H](c2c(C)ccc4[nH]ncc24)C3)CC1 (single isomer, unassigned) [Example F3], which “% Modification (0.5 h)” value is on record?
A: 0%

Q: C=CC(=O)N1CCN(c2nc(N3CC(N(C)C)C3)nc3c2C[C@H](C)[C@@H](c2c(Cl)ccc4[nH]ncc24)C3)CC1 (single isomer, unassigned) [Example F11] was tested. Which “% Modification (0.5 h)” value did it give?
A: 8%

Q: With C=CC(=O)N1CCN(c2ncnc3c2CC[C@@H](c2cc(O)cc4ccccc24)C3)CC1 (single isomer, unassigned) [Example G2] as the compound, how does the “% Modification (0.5 h)” value read?
A: 0%

Q: C=CC(=O)N1CCN(c2ncnc3c2C[C@H](C)[C@@H](c2c(C)ccc4[nH]ncc24)C3)CC1 [Example A6, 1-{4-[(6S,7S)-6-methyl-7-(5-methyl-1H-indazol-4-yl)-5,6,7,8-tetrahydroquinazolin-4-yl]piperazin-1-yl}prop-2-en-1-one] was tested. Which “% Modification (0.5 h)” value did it give?
A: 3%

Q: Which “% Modification (0.5 h)” value does the source give for C=CC(=O)N1CCN(c2ncnc3c2CCC(c2c(C)ccc4[nH]ncc24)C3)[C@@H](C)C1 (stereo partly drawn) [Example B2, 1-{(3S)-3-methyl-4-[7-(5-methyl-1H-indazol-4-yl)-5,6,7,8-tetrahydroquinazolin-4-yl]piperazin-1-yl}prop-2-en-1-one] here?
A: 13%

Q: How did the “% Modification (0.5 h)” value turn out when C=CC(=O)N1CCN(c2nc(OCCCOC)nc3c2CCC(c2c(C)ccc4[nH]ncc24)C3)CC1 (stereo not shown) [Example C2, 1-{4-[2-(3-methoxypropoxy)-7-(5-methyl-1H-indazol-4-yl)-5,6,7,8-tetrahydroquinazolin-4-yl]piperazin-1-yl}prop-2-en-1-one] was run?
A: 22%

Q: For C=CC(=O)N1CCN(c2ncnc3c2C[C@@H](C)[C@H](c2c(CO)ccc4[nH]ncc24)C3)CC1 [Example D1, 1-(4-{(6R,7R)-7-[5-(hydroxymethyl)-1H-indazol-4-yl]-6-methyl-5,6,7,8-tetrahydroquinazolin-4-yl}piperazin-1-yl)prop-2-en-1-one], which “% Modification (0.5 h)” value is on record?
A: 12%

Q: C=CC(=O)N1CCN(c2ncnc3c2C[C@@H](C)[C@H](c2c(C)cc(O)c4[nH]ncc24)C3)CC1 [Example E1, 1-{4-[(6R,7R)-7-(7-hydroxy-5-methyl-1H-indazol-4-yl)-6-methyl-5,6,7,8-tetrahydroquinazolin-4-yl]piperazin-1-yl}prop-2-en-1-one] was tested. Which “% Modification (0.5 h)” value did it give?
A: 40%

Q: With C=CC(=O)N1CCN(c2ncnc3c2CCC(c2c(C(F)(F)F)ccc4[nH]ncc24)C3)CC1 (stereo not shown) [Example G1, 1-(4-(7-(5-(trifluoromethyl)-1H-indazol-4-yl)-5,6,7,8-tetrahydroquinazolin-4-yl)piperazin-1-yl)prop-2-en-1-one] as the compound, how does the “% Modification (0.5 h)” value read?
A: 16%
